Test results published in patent publication US20260184675A1, “CHIRAL ISOMERIC SULFITE COMPOUND AND APPLICATION THEREOF” (Chengdu Hanova BioSciences Co., Ltd, priority 2024, published 2026).

Legend:
Format in all cases: in vivo
[1] = system: pest eggs of Tetranychus cinnabarinus; test: Effect on hatching of pest eggs of Tetranychus cinnabarinus, leaf disc method; details: for Hatching rate (%): 7 days after insecticide delivery; for inhibitory effect on the hatching of pest eggs of Tetranychus cinnabarinus (in words): 1 ppm
Procedure, shortened: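 Adult female mites laid eggs on 2.0 cm Vicia faba leaf discs for up to 36 h; discs with counted eggs were dipped 10 s in compound solution or water, then kept moist. Hatched eggs were counted 7 days after treatment and control effect was calculated by formula.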

eggs of Thrips = test: Effect on hatching of eggs of Thrips, leaf disc method; details: 100 ppm; for Hatching rate (%): 5 days after insecticide delivery
Procedure, shortened: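 Egg-bearing Vicia faba leaf discs (diameter 2.0 cm, wetted filter paper beneath) were counted microscopically for baseline eggs. They were then soaked for 10 seconds in water or in test agent at 100 ppm. After moist incubation in lidded dishes, with controlled temperature and humidity and adequate indirect light, hatched larvae were counted five days post-delivery to judge hatching inhibition.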

[2] = system: eggs of Tetranychus urticae; test: Effect on hatching of eggs of Tetranychus urticae, leaf disc method; details: 5 ppm; for Hatching rate (%): 5 days after insecticide delivery
Procedure, shortened: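 This leaf disc test measured inhibition of Tetranychus urticae egg hatching. Eggs laid on Vicia faba discs were counted microscopically, and the discs were soaked for 10 seconds in compound at 5 ppm, with clear water as control. They were incubated under controlled temperature and humidity with strong indirect light, avoiding condensate. Hatched eggs, leaf damage and developmental abnormalities were recorded five days after delivery.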

| SMILES | Hatching rate (%) ([1]; 0.25 mg/L, Replicate 1) | Hatching rate (%) ([1]; 0.25 mg/L, Replicate 2) | Number of hatched larvae 7 days after insecticide delivery ([1]; 0.25 mg/L, Replicate 1) | Number of hatched larvae 7 days after insecticide delivery ([1]; 0.25 mg/L, Replicate 2) | Hatching rate (%) ([1]; 0.5 mg/L, Replicate 1) | Hatching rate (%) ([1]; 0.5 mg/L, Replicate 2) | Number of hatched larvae 7 days after insecticide delivery ([1]; 0.5 mg/L, Replicate 1) | Number of hatched larvae 7 days after insecticide delivery ([1]; 0.5 mg/L, Replicate 2) | Hatching rate (%) ([1]; 1 mg/L, Replicate 1) | Hatching rate (%) ([1]; 1 mg/L, Replicate 2) | Number of hatched larvae 7 days after insecticide delivery ([1]; 1 mg/L, Replicate 1) | Number of hatched larvae 7 days after insecticide delivery ([1]; 1 mg/L, Replicate 2) | Hatching rate (%) (eggs of Thrips; Replicate 1) | Hatching rate (%) (eggs of Thrips; Replicate 2) | Hatching rate (%) (eggs of Thrips; Replicate 3) | Number of hatched larvae 5 days after insecticide delivery (eggs of Thrips; Replicate 1) | Number of hatched larvae 5 days after insecticide delivery (eggs of Thrips; Replicate 2) | Number of hatched larvae 5 days after insecticide delivery (eggs of Thrips; Replicate 3) | Hatching rate (%) ([2]; Replicate 1) | Hatching rate (%) ([2]; Replicate 2) | also measured |
| --- | --- | --- | --- | --- | --- | --- | --- | --- | --- | --- | --- | --- | --- | --- | --- | --- | --- | --- | --- | --- | --- |
| CCC(COc1ccc(Cl)cc1Cl)OS(=O)OCCF (stereo not drawn) [Compound 19] | 72.22% | 69.74% | 15 | 23 | 34.69% | 30.49% | 32 | 57 | 0.00% | 0.00% | 71 | 65 | 0.00% | 0.83% | 0.00% | 0 | 1 | 0 | 0.00% | 1.09% | inhibitory effect on the hatching of pest eggs of Tetranychus cinnabarinus (in words) [1]: excellent inhibitory effects; inhibitory activity on the hatching of eggs of Thrips (in words) (eggs of Thrips): strong inhibitory activities; inhibitory activity on the hatching of eggs of Tetranychus urticae (in words) [2]: strong inhibitory activities; Number of hatched larvae 5 days after insecticide delivery ([2]; Replicate 1): 0; Number of hatched larvae 5 days after insecticide delivery ([2]; Replicate 2): 1 |
| CCC(COS(=O)OCCF)Oc1ccc(Cl)cc1Cl (stereo not drawn) [Compound 19′] | 70.21% | 73.24% | 14 | 19 | 34.72% | 34.43% | 47 | 40 | 1.89% | 0.00% | 52 | 63 | 0.95% | 1.15% | 0.00% | 1 | 1 | 0 | 1.14% | 1.92% | inhibitory effect on the hatching of pest eggs of Tetranychus cinnabarinus (in words) [1]: excellent inhibitory effects; inhibitory activity on the hatching of eggs of Thrips (in words) (eggs of Thrips): strong inhibitory activities; inhibitory activity on the hatching of eggs of Tetranychus urticae (in words) [2]: strong inhibitory activities; Number of hatched larvae 5 days after insecticide delivery ([2]; Replicate 1): 1; Number of hatched larvae 5 days after insecticide delivery ([2]; Replicate 2): 2 |
| CC(C)(COc1ccc(Cl)cc1Cl)OS(=O)OCCF (stereo not drawn) [Compound R-10] | 73.21% | 74.03% | 15 | 20 | 42.67% | 41.94% | 28 | 36 | 8.11% | 6.25% | 68 | 60 | 15.31% | 14.50% | 14.53% | 15 | 19 | 17 | 18.06% | 16.13% | Number of hatched larvae 5 days after insecticide delivery ([2]; Replicate 1): 13; Number of hatched larvae 5 days after insecticide delivery ([2]; Replicate 2): 15 |
| CC(C)(COc1ccc(Cl)cc1Cl)OS(=O)OCCF (stereo not drawn) [Compound S-10] | 39.51% | 41.79% | 49 | 39 | 4.62% | 3.39% | 62 | 57 | 0.00% | 0.00% | 78 | 84 | 0.00% | 0.00% | 0.00% | 0 | 0 | 0 | 0.00% | 0.00% | inhibitory effect on the hatching of pest eggs of Tetranychus cinnabarinus (in words) [1]: excellent inhibitory effects; inhibitory activity on the hatching of eggs of Thrips (in words) (eggs of Thrips): strong inhibitory activities; inhibitory activity on the hatching of eggs of Tetranychus urticae (in words) [2]: strong inhibitory activities; Number of hatched larvae 5 days after insecticide delivery ([2]; Replicate 1): 0; Number of hatched larvae 5 days after insecticide delivery ([2]; Replicate 2): 0 |
| CC(C)(COS(=O)OCCF)Oc1ccc(Cl)cc1Cl (stereo not drawn) [R-10′] | 74.07% | 76.79% | 21 | 13 | 42.86% | 45.07% | 36 | 39 | 8.47% | 7.46% | 54 | 62 | 13.93% | 15.05% | 13.97% | 17 | 14 | 19 | 17.72% | 16.67% | Number of hatched larvae 5 days after insecticide delivery ([2]; Replicate 1): 14; Number of hatched larvae 5 days after insecticide delivery ([2]; Replicate 2): 16 |
| CC(C)(COS(=O)OCCF)Oc1ccc(Cl)cc1Cl (stereo not drawn) [S-10′] | 42.11% | 43.77% | 44 | 37 | 7.95% | 6.12% | 81 | 46 | 0.00% | 0.00% | 59 | 84 | 0.00% | 0.00% | 0.00% | 0 | 0 | 0 | 0.00% | 0.00% | inhibitory effect on the hatching of pest eggs of Tetranychus cinnabarinus (in words) [1]: excellent inhibitory effects; inhibitory activity on the hatching of eggs of Thrips (in words) (eggs of Thrips): strong inhibitory activities; inhibitory activity on the hatching of eggs of Tetranychus urticae (in words) [2]: strong inhibitory activities; Number of hatched larvae 5 days after insecticide delivery ([2]; Replicate 1): 0; Number of hatched larvae 5 days after insecticide delivery ([2]; Replicate 2): 0 |
